Measured values reported in ChEMBL document CHEMBL4651402, “Screening of ~5500 FDA-approved drugs and clinical candidates for anti-SARS-CoV-2 activity” (2021).

Tested on: SARS-CoV-2
Test: microbe, parasite or virus in culture
Details: Severe acute respiratory syndrome coronavirus 2, Vero C1008, 48 h

Compound	IC50	IC50 (read-out: pIC50 (converted))
C[N+]1(CCC(C(N)=O)(c2ccccc2)c2ccccc2)CCCCCC1 [BUZEPIDE]	> 20 µM	> 20 µM
CC[C@H](C)n1ncn(-c2ccc(N3CCN(c4ccc(OC[C@H]5CO[C@@](Cn6cncn6)(c6ccc(F)cc6F)O5)cc4)CC3)cc2)c1=O	> 20 µM	> 20 µM
COC(=O)N[C@H](C(=O)N[C@@H](Cc1ccccc1)[C@@H](O)CN(Cc1ccc(-c2ccccn2)cc1)NC(=O)[C@@H](NC(=O)OC)C(C)(C)C)C(C)(C)C [ATAZANAVIR]	> 20 µM	> 20 µM
Cc1c2ccncc2c(C)c2c1[nH]c1ccccc12 [ELLIPTECINE]	> 20 µM	> 20 µM
O=C(O[C@@H]1Cc2c(O)cc(O)cc2O[C@@H]1c1cc(O)c(=O)c2c(O)c(O)cc([C@H]3Oc4cc(O)cc(O)c4C[C@H]3O)c2c1)c1cc(O)c(O)c(O)c1 [THEAFLAVIN MONOGALLATES]	> 20 µM	> 20 µM
COc1cccc([C@H]2O[C@H](CC(=O)N3CCC(CC(=O)O)CC3)C(=O)N(CC(C)(C)COC(C)=O)c3ccc(Cl)cc32)c1OC [LAPAQUISTAT ACETATE]	> 20 µM	> 20 µM
CC(C)OC(=O)[C@H](C)N[P@](=O)(CO[C@H](C)Cn1cnc2c(N)ncnc21)Oc1ccccc1 [TENOFOVIR ALAFENAMIDE]	> 20 µM	> 20 µM
O=c1ccc2cc(O[C@@H]3O[C@H](CO)[C@@H](O)[C@H](O)[C@H]3O)c(O)cc2o1 [ESCULIN]	> 20 µM	> 20 µM
O=C(O)CC/C=C/CCC1C(OCc2ccc(-c3ccccc3)cc2)CC(O)C1N1CCCCC1 (stereo not given)	> 20 µM	> 20 µM
CCOc1ccc(CC2=NCCc3cc(OC(C)C)c(OC(C)C)cc32)cc1OCC [DIPROTEVERINE]	> 20 µM	> 20 µM
CCCS(=O)(=O)N[C@H]1C[C@@H](N(C)c2ncnc3[nH]ccc23)C1 [ABROCITINIB]	> 20 µM	> 20 µM
Cc1nnc2n1-c1sc(Br)cc1C(c1ccccc1Cl)=NC2 [BROTIZOLAM]	> 20 µM	> 20 µM
NCC(O)c1cccc(O)c1 (stereo not given) [NORFENEFRINE]	> 20 µM	> 20 µM
C=C1[C@@H](O)C23C[C@@H]1[C@@H](O)C[C@H]2[C@@]12[C@@H]4[C@H]3C[C@@H]1[C@@](C)(CC[C@@H]2O)CN4CC	> 20 µM	> 20 µM
CCOC(=O)C1OC1C(=O)NC(CC(C)C)C(=O)N1CCN(Cc2ccc(OC)c(OC)c2OC)CC1 (stereo not given)	> 20 µM	> 20 µM
CCCN(CCC)CCc1ccc(OC)c(OCCc2ccccc2)c1	> 20 µM	> 20 µM
Cc1cc(=O)[nH]c(=S)[nH]1 [METHYLTHIOURACIL]	> 20 µM	> 20 µM
CC1(N)CCN(c2cccnc2NC(=O)c2nc(-c3ncccc3C(F)(F)F)cnc2N)CC1 [DAROVASERTIB]	> 20 µM	> 20 µM

Compound	IC50	IC50 (read-out: pIC50 (converted))
C1=N/C2=N/c3ccc(OCCN4CCCC4)c(c3)COC/C=C/COCc3cccc(c3)C(=C1)N2 [PACRITINIB]	> 20 µM	> 20 µM
CCn1cnc(C(=O)NC)c1C(=O)NC	> 20 µM	> 20 µM
CC(N)C(O)c1cccc(O)c1 (stereo not given)	> 20 µM	> 20 µM
O=C1c2ccccc2-c2cccc3cccc1c23 [BENZANTHRONE]	> 20 µM	> 20 µM
CC(=O)OC[C@H]1O[C@@H](n2ncc(=O)[nH]c2=O)[C@H](OC(C)=O)[C@@H]1OC(C)=O [AZARIBINE]	> 20 µM	> 20 µM
CN1[C@@H]2C[C@@H](OC(=O)[C@@](O)(CO)c3ccccc3)C[C@H]1[C@@H]1O[C@@H]12	> 20 µM	> 20 µM
CCCCCC1C(=O)N2C=C(c3ccccc3)c3ccccc3N2C1=O (stereo not given) [CINTAZONE]	> 20 µM	> 20 µM
COc1cc(N2CCC(N(C)C)CC2)ccc1Nc1ncc(Cl)c(Nc2ccccc2P(C)(C)=O)n1	> 20 µM	> 20 µM
CCN(CC)CCOC(=O)c1ccc(N)cc1 [PROCAINE]	> 20 µM	> 20 µM
COC(=O)CCC(C)C1CCC2C3C(C[C@H](O)[C@]12C)[C@@]1(C)CC[C@@H](O)C[C@H]1C[C@H]3O (stereo not given in full)	> 20 µM	> 20 µM
CCN(CC)CCOc1ccccc1-n1c(C)ccc1-c1ccccc1 [LEIOPYRROLE]	> 20 µM	> 20 µM
CN(C)[C@@H](c1cccnc1)C1COCOC1 [DOXPICOMINE]	> 20 µM	> 20 µM
CC(=O)C1CCC2C3CCC4=CC(=O)CCC4C3CCC12C (stereo not given)	> 20 µM	> 20 µM
CCCCC[C@H](O)CC[C@@H]1[C@H]2Cc3cccc(OCC(=O)O)c3C[C@H]2C[C@H]1O [TREPROSTINIL]	> 20 µM	> 20 µM
CCCCCCCCCCCCCC[C@@H](O)[C@@H](O)[C@@H](N)CO [PHYTOSPHINGOSINE]	> 20 µM	> 20 µM
CCOc1nc2cccc(C(=O)O)c2n1Cc1ccc(-c2ccccc2-c2nnn[nH]2)cc1	> 20 µM	> 20 µM
O=C(Nc1ccc([N+](=O)[O-])cc1Cl)c1cc(Cl)ccc1O [NICLOSAMIDE]	> 20 µM	> 20 µM
